Assay results reported in US10881709B2, “Immune system modulators and compositions” (Canimguide Therapeutics AB, priority 2015, dated 2021).
Peptide text beside a SMILES is read from it.

How the values were obtained:
[1] = system: spontaneous canine tumours; assay: Intra-tumoral treatment of spontaneous tumours in dogs; assay type: in vivo; details: single dog
Procedure: Seventeen spontaneous canine tumours, of variable histology have been treated by intra-tumoral injection of 40 nmol P28R in 200 microliters. The tumours were resected 3-5 days later, immediately snap frozen and stored at −80° C. until further processed. A detailed description of treatment of the tumors is provided below (see Examples 50-60). In these examples, 15 control dogs with untreated tumours (5 snap frozen and 10 FFPE) were also examined.
A summary is provided for 7 dogs with treated mammary tumours and 5 untreated control dogs (see FIG. 88). Tumour cells (881 for treated dogs, 882 for untreated control dogs) and lymphocytes (883 for both treated dogs and untreated control dogs) were counted at 400× magnification. The ratio between these cells was used as a measure on the inflammatory infiltrate (FIG. 88). The reproducibility and the influence of tumour heterogeneity on cell counts were evaluated by counting several areas from each tumour section.
The therapeutic efficacy was evaluated as the presence of an inflammatory infiltrate and the occurrence of tumour cell regressive changes. As migration of effector cells close to tumour cells is one important, but often inhibited function of these cells, the effect of P28R was specifically evaluated as the presence of inflammatory cells infiltrating into the tumour cell areas close to the tumour cells. […]

[2] = Toxicological study and observation of side effects in dogs; assay type: in vivo, dog; details: 200 nM in 1 mL subcutaneously and 40 nM in 200 microliters intra-tumourally
Procedure: So far nine dogs have been treated with P28R in accordance with some embodiments herein, 4 in the toxicological study (CiToxLab, Denmark) with 200 nM administered in 1 mL subcutaneously and 5 dogs in the treatment study reported here with 40 nM in 200 microliters intra tumourally.
More than 20 dogs have been treated with P28R, including 4 in the toxicological study (CiToxLab®, Denmark) with 200 nM administered in 1 mL subcutaneously and 17 dogs in the treatment study reported here with 40 nM in 200 microliters intra-tumourally.

[3] = Toxicological aspects of P28R in dogs (systemic side effects); assay type: in vivo, dog; details: 21 dogs: 4 with 200 nM in 1 mL subcutaneously, 17 with 40 nM in 200 microliters intra-tumourally
Procedure: Twenty-one dogs have been treated with P28R, 4 in the toxicological study (CiToxLab®, Denmark) with 200 nM administered in 1 mL subcutaneously and 17 dogs in the treatment study reported here with 40 nM in 200 microliters intra-tumourally.

## CC(C)C[C@H](NC(=O)[C@H](CO)NC(=O)[C@H](CC(C)C)NC(=O)[C@H](CCCCN)NC(=O)[C@@H](NC(=O)[C@H](Cc1ccccc1)NC(=O)[C@H](Cc1ccccc1)NC(=O)[C@@H](NC(=O)[C@H](CC(=O)O)NC(=O)[C@H](CC(C)C)NC(=O)[C@H](CCCCN)NC(=O)[C@@H](N)CCCCN)[C@@H](C)O)C(C)C)C(=O)N[C@@H](Cc1ccccc1)C(=O)N[C@H](C(=O)N[C@@H](CCC(=O)O)C(=O)N[C@@H](CCCNC(=N)N)C(=O)O)[C@@H](C)O [P28R] (H-KKLDTFFVKLSLFTER-OH; N-terminus and C-terminus assumed)
[1]
  clinical observations after injection until resection: No systemic adverse events were observed
[2]
  systemic side effects: None of these dogs showed any systemic side effects
[3]
  systemic side effects: None of these dogs showed any systemic side effects
